From ChEMBL document CHEMBL1130210, “Steroidal glycoside cholesterol absorption inhibitors” (1997)

System: Cricetinae gen. sp.
Experiment: Ability to inhibit the intestinal absorption of [3H]cholesterol in cholesterol-fed hamsters
Type: functional

Row | Compound | ED50 [mg/kg]
1 | C[C@@H]1CC[C@@]2(OC1)OC1CC3C4CC[C@H]5C[C@@H](O[C@@H]6O[C@@H](COC(=O)Nc7ccccc7)[C@@H](O[C@@H]7O[C@@H](COC(=O)Nc8ccccc8)[C@@H](O)[C@H](O)[C@@H]7O)[C@H](O)[C@@H]6O)CC[C@]5(C)C4C(=O)C[C@]3(C)C1[C@@H]2C (some centres not stated) | 5
2 | C[C@@H]1CC[C@@]2(OC1)OC1CC3C4CC[C@H]5C[C@@H](O[C@@H]6O[C@@H](CO)[C@@H](O[C@@H]7O[C@@H](COC(=O)NCc8ccco8)[C@@H](OC(=O)NCc8ccco8)[C@H](O)[C@@H]7O)[C@H](O)[C@@H]6O)CC[C@]5(C)C4C(=O)C[C@]3(C)C1[C@@H]2C (some centres not stated) | 0.3
3 | C[C@]12CC[C@H](O[C@@H]3O[C@@H](CO)[C@@H](O[C@@H]4O[C@@H](CO)[C@@H](O)[C@H](O)[C@@H]4O)[C@H](O)[C@@H]3O)C[C@@H]1CC[C@@H]1[C@@H]2CC[C@]2(C)C(=O)CC[C@@H]12 | 25
4 | CC1CC[C@@]2(OC1)OC1C[C@H]3[C@@H]4CC[C@H]5C[C@@H](O[C@@H]6O[C@@H](CO)C(O[C@@H]7O[C@@H](COC(=O)Nc8ccccc8Cl)[C@@H](OC(=O)Nc8ccccc8Cl)[C@H](O)[C@@H]7O)[C@@H](O)[C@@H]6O)CC[C@]5(C)[C@H]4C(=O)C[C@]3(C)C1[C@@H]2C (some centres not stated) | 1
5 | C[C@@H]1CC[C@@]2(OC1)O[C@H]1C[C@H]3[C@@H]4CC=C5C[C@@H](O[C@@H]6O[C@@H](CO)[C@@H](O[C@@H]7O[C@@H](CO)[C@@H](O)[C@H](O)[C@@H]7O)[C@H](O)[C@@H]6O)CC[C@]5(C)[C@H]4CC[C@]3(C)[C@H]1[C@@H]2C | 100
6 | C[C@@H]1CC[C@@]2(OC1)OC1CC3C4CC[C@H]5C[C@@H](O[C@@H]6O[C@@H](COC(=O)Nc7ccc(Cl)cc7)[C@@H](O[C@@H]7O[C@@H](COC(=O)Nc8ccc(Cl)cc8)[C@@H](O)[C@H](O)[C@@H]7O)[C@H](O)[C@@H]6O)CC[C@]5(C)C4C(=O)C[C@]3(C)C1[C@@H]2C (some centres not stated) | 5
7 | Cc1ccccc1NC(=O)OC[C@@H]1O[C@@H](O[C@H]2[C@H](O)[C@H](O)[C@H](O[C@H]3CC[C@]4(C)C5C(=O)C[C@@]6(C)C(CC7O[C@]8(CC[C@@H](C)CO8)[C@@H](C)C76)C5CC[C@H]4C3)O[C@H]2CO)[C@@H](O)[C@@H](O)[C@@H]1O (some centres not stated) | 0.5
8 | C[C@@H]1CC[C@@]2(OC1)OC1CC3C4CC[C@H]5C[C@@H](O[C@@H]6O[C@@H](CO)[C@@H](O[C@@H]7O[C@@H](COC(=O)Nc8ccc(Cl)cc8)[C@@H](O)[C@H](O)[C@@H]7O)[C@H](O)[C@@H]6O)CC[C@]5(C)C4C(=O)C[C@]3(C)C1[C@@H]2C (some centres not stated) | 1
9 | C[C@@H]1CC[C@@]2(OC1)OC1CC3C4CC[C@H]5C[C@@H](O[C@@H]6O[C@@H](CO)[C@@H](O[C@@H]7O[C@@H](COC(=O)NCCc8ccccc8)[C@@H](O)[C@H](O)[C@@H]7O)[C@H](O)[C@@H]6O)CC[C@]5(C)C4C(=O)C[C@]3(C)C1[C@@H]2C (some centres not stated) | 5
10 | C[C@H]1CC[C@@]2(OC1)O[C@H]1C[C@H]3[C@@H]4CC[C@@H]5C[C@@H](O[C@@H]6O[C@@H](CO)[C@@H](O[C@@H]7O[C@@H](CO)[C@@H](O)[C@H](O)[C@@H]7O)[C@H](O)[C@@H]6O)CC[C@]5(C)[C@H]4CC[C@]3(C)C1[C@@H]2C (some centres not stated) | 75
11 | C[C@@H]1CC[C@@]2(OC1)OC1CC3C4CC[C@H]5C[C@@H](O[C@@H]6O[C@@H](CO)[C@@H](O[C@@H]7O[C@@H](COC(=O)Nc8ccc(F)cc8)[C@@H](OC(=O)Nc8ccc(F)cc8)[C@H](O)[C@@H]7O)[C@H](O)[C@@H]6O)CC[C@]5(C)C4C(=O)C[C@]3(C)C1[C@@H]2C (some centres not stated) | 0.2
12 | C[C@@H]1CC[C@@]2(OC1)OC1CC3C4CC[C@H]5C[C@@H](O[C@@H]6O[C@@H](CO)[C@@H](O[C@@H]7O[C@@H](COC(=S)Nc8ccccc8)[C@@H](OC(=S)Nc8ccccc8)[C@H](O)[C@@H]7O)[C@H](O)[C@@H]6O)CC[C@]5(C)C4C(=O)C[C@]3(C)C1[C@@H]2C (some centres not stated) | 0.04
13 | C[C@@H]1CC[C@@]2(OC1)OC1CC3C4CC[C@H]5C[C@@H](O[C@@H]6O[C@@H](CO)[C@@H](O[C@@H]7O[C@@H](COC(=O)Nc8cccc(F)c8)[C@@H](OC(=O)Nc8cccc(F)c8)[C@H](O)[C@@H]7O)[C@H](O)[C@@H]6O)CC[C@]5(C)C4C(=O)C[C@]3(C)C1[C@@H]2C (some centres not stated) | 0.1
14 | C[C@@H]1CC[C@@]2(OC1)OC1CC3C4CC[C@H]5C[C@@H](O[C@@H]6O[C@@H](CO)[C@@H](O[C@@H]7O[C@@H](COC(=O)NCc8ccccc8)[C@@H](OC(=O)NCc8ccccc8)[C@H](O)[C@@H]7O)[C@H](O)[C@@H]6O)CC[C@]5(C)C4C(=O)C[C@]3(C)C1[C@@H]2C (some centres not stated) | 0.3
15 | CC1CC[C@@]2(OC1)OC1C[C@H]3[C@@H]4CC[C@H]5C[C@@H](OC6OC(CCl)C(OC7OC(CCl)C(O)C(O)C7O)C(O)C6O)CC[C@]5(C)[C@H]4C(=O)C[C@]3(C)C1[C@@H]2C (some centres not stated) | 0.5
16 | CC1CC[C@@]2(OC1)OC1C[C@H]3[C@@H]4CC[C@H]5C[C@@H](OC6OC(CI)C(OC7OC(CI)C(O)C(O)C7O)C(O)C6O)CC[C@]5(C)[C@H]4C(=O)C[C@]3(C)C1[C@@H]2C (some centres not stated) | 1.5

Row | Compound | ED50 [mg/kg]
17 | C[C@@H]1CC[C@@]2(OC1)OC1CC3C4CC[C@H]5C[C@@H](O[C@@H]6O[C@@H](CO)[C@@H](O[C@@H]7O[C@@H](COC(=O)Nc8ccccc8F)[C@@H](OC(=O)Nc8ccccc8F)[C@H](O)[C@@H]7O)[C@H](O)[C@@H]6O)CC[C@]5(C)C4CC[C@]3(C)C1[C@@H]2C (some centres not stated) | 1
18 | C[C@@H]1CC[C@@]2(OC1)OC1CC3C4CC[C@H]5C[C@@H](O[C@@H]6O[C@@H](CO)[C@@H](O[C@@H]7O[C@@H](COC(=O)Nc8ccc(F)cc8F)[C@@H](OC(=O)Nc8ccc(F)cc8F)[C@H](O)[C@@H]7O)[C@H](O)[C@@H]6O)CC[C@]5(C)C4C(=O)C[C@]3(C)C1[C@@H]2C (some centres not stated) | 0.04
19 | C[C@@H]1CC[C@@]2(OC1)OC1CC3C4CC[C@H]5C[C@@H](O[C@@H]6O[C@@H](COC(=O)Nc7ccccc7F)[C@@H](O[C@@H]7O[C@@H](CO)[C@@H](O)[C@H](O)[C@@H]7O)[C@H](O)[C@@H]6O)CC[C@]5(C)C4C(=O)C[C@]3(C)C1[C@@H]2C (some centres not stated) | 7
20 | C[C@@H]1CC[C@@]2(OC1)OC1CC3C4CC[C@H]5C[C@@H](O[C@@H]6O[C@@H](CO)[C@@H](O[C@@H]7O[C@@H](COC(=O)NCc8ccccc8)[C@@H](O)[C@H](O)[C@@H]7O)[C@H](O)[C@@H]6O)CC[C@]5(C)C4C(=O)C[C@]3(C)C1[C@@H]2C (some centres not stated) | 5
21 | C[C@@H]1CC[C@@]2(OC1)OC1CC3C4CC[C@H]5C[C@@H](O[C@@H]6O[C@@H](CO)[C@@H](O[C@@H]7O[C@@H](COC(=O)Nc8ccccc8)[C@@H](OC(=O)Nc8ccccc8)[C@H](O)[C@@H]7O)[C@H](O)[C@@H]6O)CC[C@]5(C)C4C(=O)C[C@]3(C)C1[C@@H]2C (some centres not stated) | 0.1
22 | C[C@@H]1CC[C@@]2(OC1)OC1CC3C4CC[C@H]5C[C@@H](O[C@@H]6O[C@@H](CO)[C@@H](O[C@@H]7O[C@@H](COC(=O)Nc8ccccc8F)[C@@H](OC(=O)Nc8ccccc8F)[C@H](O)[C@@H]7O)[C@H](O)[C@@H]6O)CC[C@]5(C)C4CC(=O)[C@]3(C)C1[C@@H]2C (some centres not stated) | 0.07
23 | C[C@@H]1CC[C@@]2(OC1)OC1CC3C4CC[C@H]5C[C@@H](O[C@@H]6O[C@@H](COC(=O)Nc7c(Cl)cccc7Cl)[C@@H](O[C@@H]7O[C@@H](COC(=O)Nc8c(Cl)cccc8Cl)[C@@H](O)[C@H](O)[C@@H]7O)[C@H](O)[C@@H]6O)CC[C@]5(C)C4C(=O)C[C@]3(C)C1[C@@H]2C (some centres not stated) | 0.4
24 | C[C@@H]1CC[C@@]2(OC1)O[C@H]1C[C@H]3[C@@H]4CC[C@H]5C[C@@H](O[C@@H]6O[C@H](CO)[C@@H](O)[C@H](O)[C@H]6O)CC[C@]5(C)[C@H]4C(=O)C[C@]3(C)[C@H]1[C@@H]2C | 16
25 | C[C@@H]1CC[C@@]2(OC1)OC1CC3C4CC[C@H]5C[C@@H](O[C@@H]6O[C@@H](CO)[C@@H](O[C@@H]7O[C@@H](COC(=O)N8CCCC8)[C@@H](O)[C@H](O)[C@@H]7O)[C@H](O)[C@@H]6O)CC[C@]5(C)C4C(=O)C[C@]3(C)C1[C@@H]2C (some centres not stated) | 1.5
26 | C[C@@H]1CC[C@@]2(OC1)OC1C[C@H]3[C@@H]4CC[C@H]5C[C@@H](O[C@@H]6O[C@@H](CO)[C@@H](O[C@@H]7O[C@@H](COC(=O)Nc8ccccc8F)[C@@H](O)[C@H](O)[C@@H]7O)[C@H](O)[C@@H]6O)CC[C@]5(C)[C@H]4C(=O)C[C@]3(C)C1[C@@H]2C (some centres not stated) | 0.2
27 | CC1CC[C@@]2(OC1)OC1C[C@H]3[C@@H]4CC[C@H]5C[C@@H](OC6OC(CF)C(OC7OC(CF)C(O)C(O)C7O)C(O)C6O)CC[C@]5(C)[C@H]4C(=O)C[C@]3(C)C1[C@@H]2C (some centres not stated) | 0.7
28 | CC(C)CCC[C@@H](C)C1CC[C@H]2[C@@H]3CC[C@H]4C[C@@H](O[C@@H]5O[C@@H](CO)[C@@H](O[C@@H]6O[C@@H](CO)[C@@H](O)[C@H](O)[C@@H]6O)[C@H](O)[C@@H]5O)CC[C@]4(C)[C@H]3CC[C@]12C (some centres not stated) | 150
29 | CC1CC[C@@]2(OC1)OC1C[C@H]3[C@@H]4CC[C@H]5C[C@@H](O[C@@H]6O[C@@H](CO)[C@@H](O[C@@H]7O[C@@H](COC(=O)N8CCOCC8)[C@@H](OC(=O)N8CCOCC8)[C@H](O)C7O)[C@H](O)[C@@H]6O)CC[C@]5(C)[C@H]4C(=O)C[C@]3(C)C1[C@@H]2C (some centres not stated) | 4
30 | CC1CC[C@@]2(OC1)OC1C[C@H]3[C@@H]4CC[C@H]5C[C@@H](OC6OC(C)C(OC7OC(C)C(O)C(O)C7O)C(O)C6O)CC[C@]5(C)[C@H]4C(=O)C[C@]3(C)C1[C@@H]2C (some centres not stated) | 6.5
31 | C[C@@H]1CC[C@@]2(OC1)OC1CC3C4CC[C@H]5C[C@@H](O[C@@H]6O[C@@H](COC(=O)Nc7ccccc7F)[C@@H](O[C@@H]7O[C@@H](COC(=O)Nc8ccccc8F)[C@@H](O)[C@H](O)[C@@H]7O)[C@H](O)[C@@H]6O)CC[C@]5(C)C4C(=O)C[C@]3(C)C1[C@@H]2C (some centres not stated) | 0.8
32 | C[C@@H]1CC[C@@]2(OC1)OC1CC3C4CC[C@H]5C[C@@H](O[C@@H]6O[C@@H](CO)[C@@H](O[C@@H]7O[C@@H](COC(=O)Nc8ccccc8F)[C@@H](OC(=O)Nc8ccccc8F)[C@H](O)[C@@H]7O)[C@H](O)[C@@H]6O)CC[C@]5(C)C4C(=O)C[C@]3(C)C1[C@@H]2C (some centres not stated) | 0.025
